Data: patent publication US20200190101A1, “Composition Containing Novel Glutamic Acid Derivative And Block Copolymer, And Use Thereof” (Nippon Kayaku Kabushiki Kaisha, priority 2015, published 2020)
Counter-ions that a name gives are not always drawn. Like-named read-outs stand apart in the source and are kept apart here. One block for each molecule: values may come before it.

Assays:
[1] = tested on: γ-glutamyl transpeptidase (GGT); experiment: γ-Glutamyl transpeptidase (GGT) enzyme recognition test; assay type: biochemical; conditions: 37° C.
Method: To 0.150 mL of this doxorubicin-bonded glutamic acid derivative (prodrug) PBS solution, 0.150 mL of a 2 U/mL GGT solution obtained by dissolving GGT (0.22 mg, 8 U/mg) (Sigma-Aldrich Company) in PBS (0.880 mL) was added, and the mixture was allowed to react at 37° C.
The reaction liquid was analyzed by HPLC, and thus the residual ratio of the doxorubicin-bonded glutamic acid derivative (prodrug) and the production ratio of doxorubicin were determined.
To 0.100 mL of the doxorubicin-bonded glutamic acid derivative PBS solution, 0.100 mL of a 2 U/mL GGT solution obtained by dissolving GGT (0.38 mg, 8 U/mg) (Sigma-Aldrich Company) in PBS (1.520 mL) was added, and the mixture was allowed to react at 37° C. […]

[2] = tested on: OS-RC-2 cells having high GGT activity; experiment: cells; assay type: cell-based, human
Method: (§1) After the cells were incubated for 6 hours, the interior of the wells was washed, and after the cells were further incubated for 3 days, the cells were immobilized with methanol and stained using Methylene Blue dye. After staining, the dye was extracted with a 0.3% aqueous solution of hydrochloric acid was extracted, and the light absorbance at 660 nm was measured. For the light absorbance thus obtained, the cell proliferation suppressive activity was evaluated based on the reduction ratio for the light absorbance measured from cells to which the compound was not added.
(§2) By a similar operation, the cell proliferation suppressive activity was evaluated from the light absorbance, using doxorubicin that was not converted to a glutamic acid derivative. The results are shown in FIG. 1 (OS-RC-2 cells having high GGT activity) and FIG. 2 (SK-OV-3 cells having low GGT activity).
(§3) The cell proliferation inhibitory activity of the EHC-bonded glutamic acid derivative according to Synthesis Example 6 was evaluated using OS-RC-2 cells (RIKEN BioResource Center), which are known to have high GGT activity, and SK-OV-3 cells (American Type Culture Collection), which are known to have low GGT activity.
(§4) On a 96-well plate, OS-RC-2 cells having high GGT activity and SK-OV-3 cells having low GGT activity were each inoculated in an amount of 4,000 cells/well and were incubated for one day at 37° C. and 5% CO2, and then the EHC prodrug according to Synthesis Example 6 was added to the cells at a final concentration of 0.0001 to 1 μM. After the cells were incubated for 6 hours, the interior of the wells was washed, and the cells were further incubated for 3 days. After the incubation, the cells were immobilized with methanol and were stained using Methylene Blue dye. After staining, the dye was extracted with a 0.3% aqueous solution of hydrochloric acid, and the light absorbance at 660 nm was measured. The cell proliferation suppressive activity was evaluated based on the reduction ratio for the light absorbance thus obtained, with respect to the light absorbance measured from cells to which the compound was not added.
(§5) By a similar operation, EHC, which was an active ingredient of Synthesis Example 6, was used without modification, and the cell proliferation suppressive activity was evaluated from the light absorbance.

[3] = tested on: SK-OV-3 cells having low GGT activity; experiment: cells; assay type: cell-based
Method: as §1, §2, §3, §4, §5

[4] = tested on: OS-RC-2 cells having high GGT activity; assay type: cell-based, human; conditions: GGsTop 10 μM
Method: OS-RC-2 cells were inoculated by a method similar to that of Test Example 3. […] After the cells were incubated for 6 hours, the interior of the wells was washed, and after the cells were further incubated for 3 days, the cell proliferation suppressive activity was evaluated by a method similar to that of Test Example 3.
By a similar operation, the cell proliferation suppressive activity was evaluated using doxorubicin that was not glutamic acid-derivatized, from the light absorbance of the compound.
The GGT activity dependency of the cell proliferation inhibitory activity of the EHC-bonded glutamic acid derivative according to Synthesis Example 6 was evaluated using OS-RC-2 cells having high GGT activity.
OS-RC-2 cells were inoculated by a method similar to that of Test Example 10. After the cells were incubated for one day, GGsTop (Wako Pure Chemical Industries, Ltd.), which is a GGT inhibitor, was added to the cells at a final concentration of 10 μM, and the cells were incubated for one hour. Subsequently, the EHC-bonded glutamic acid derivative according to Synthesis Example 6 was added to the cells at a final concentration of 0.0001 to 1 μM. After the cells were incubated for 6 hours, the interior of the wells was washed, and after the cells were incubated for 3 days, the cell proliferation suppressive activity was evaluated by a method similar to that of Test Example 10.
By a similar operation, the cell proliferation suppressive activity was evaluated using EHC, which is the active ingredient of Synthesis Example 6, from the light absorbance of the compound.

[5] = Phosphate buffered physiological saline (PBS) solution stability test; assay type: physicochemical; conditions: PBS (DMSO stock), 37° C.
Method: 0.148 mL of the doxorubicin-bonded glutamic acid derivative PBS solution was dissolved in 0.148 mL of a PBS solution, and the solution was allowed to react at 37° C.
PBS (0.100 mL) was added to the EHC-bonded glutamic acid derivative solution (0.100 mL), and the mixture was allowed to react at 37° C. The reaction liquid was analyzed by HPLC, and thereby the residual ratio of the EHC-bonded glutamic acid derivative was determined.
PBS (0.117 mL) was added to the camptothecin-bonded glutamic acid derivative solution (0.117 mL), and the mixture was allowed to react at 37° C. The reaction liquid was analyzed by HPLC, and thereby the residual ratio of the glutamic acid derivative was determined.
The reaction liquid was analyzed by HPLC, and thereby the residual ratio of the EHC-bonded glutamic acid derivative was determined.

[6] = assay type: in vitro ADME; conditions: 24 h, 0.0856 mg/mL
Method: Mouse blood plasma (0.180 mL) was added to a 0.856 mg/mL DMSO solution of the EHC-bonded glutamic acid derivative of Synthesis Example 6 (0.020 mL), and the mixture was allowed to react at 37° C.
The reaction liquid was analyzed by HPLC, and thereby the residual ratio of the EHC-bonded glutamic acid derivative was determined. 94% of the EHC-bonded glutamic acid derivative prodrug remained after 24 hours.

[7] = Test on pharmacokinetics of Synthesis Example 6 (tissue AUC, OS-RC-2 tumor-bearing mice); set-up: species or system SCID mice; conditions: mouse, in vivo
Method: Human renal cell cancer OS-RC-2 tumors that had been subcutaneously subcultured in SCID mice were produced into blocks that measured about 2 mm on each side, and the blocks were subcutaneously transplanted into SCID mice using a trocar.
At time points of 5 minutes, 1 hour, 3 hours, and 6 hours after the administration, various tissues such as blood plasma, liver, bone marrow, and tumor were collected under ether anesthesia. The drug concentrations of EHC as an active drug of Synthesis Example 6, the unchanged drug of Synthesis Example 6, and the unchanged drug of CPT-11 in the various tissues were quantitatively analyzed by a LC-MS/MS method under the following measuring instrument and conditions.
From the concentrations of EHC, the EHC-bonded glutamic acid derivative according to Synthesis Example 6, and CPT-11 in the tissues at various time points, the AUC0-6 hr (μg·hr/mL or g) values of the various components up to 6 hours after the initiation of administration were calculated. As the prodrug activation rates of Synthesis Example 6 and CPT-11 in the various tissues, the AUC0-6 hr ratios of the active drug with respect to the unchanged drug (AUCEHC/AUCSynthesis Example 6 unchanged drug, and AUCEHC/AUCCPT-11) were determined.

[8] = tested on: human renal cell cancer OS-RC-2; experiment: Test on antitumor effect of Synthesis Example 6, OS-RC-2; assay type: in vivo, SCID mice; conditions: three times at an interval of 4 days
Method: By an operation similar to that of Test Example 15, to those mice having human renal cell cancer OS-RC-2 transplanted thereinto, the EHC-bonded glutamic acid derivative of Synthesis Example 6 was intravenously administered through the caudal vein, on the 17th day after tumor transplantation, at a dose of 20, 40, or 80 mg/kg three times in total at an interval of 4 days.
(§6) After the administration, the major axis (L) and the minor axis (W) of a tumor were measured using calipers at an interval of 2 to 3 days, the tumor volume was calculated by the formula: (L×W^2)/2, and the tumor volume change rate from the administration initiation day was determined.

[9] = tested on: human ovarian cancer SHIN-3 tumors; experiment: Test on antitumor effect of Synthesis Example 1, SHIN-3 tumors; assay type: in vivo; conditions: 5 mg/kg i.v., at an interval of 7 days
Method: By an operation similar to that of Test Example 12, human ovarian cancer SHIN-3 tumors were subcutaneously transplanted into SCID mice, and tumor engraftment was confirmed.
as §6

[10] = after 6 hours, 2 mM PBS solution + 2 U/mL GGT solution

Residual ratio of the glutamic acid derivative [1, 10]: 93%
Compound: COc1cccc2c1C(=O)c1c(O)c3c(c(O)c1C2=O)C[C@@](O)(C(=O)CO)C[C@@H]3O[C@H]1C[C@H](NC(=O)CC[C@H](N)C(=O)O)[C@H](O)[C@H](C)O1 [Comparative Example 1, (S)-(4-amino-4-carboxybutanamido)doxorubicin, reference compound]

Compound: CCc1c2c(nc3ccc(O)cc13)-c1cc3c(c(=O)n1C2)COC(=O)[C@]3(O)CC [EHC, 7-ethyl-10-hydroxycamptothecin, reference compound]
Cell proliferation inhibitory activity ([2]; OS-RC-2 cells, 0.01 μM, 6 hours exposure then 3 days incubation): 26%
Cell proliferation inhibitory activity ([3]; SK-OV-3 cells, 0.01 μM, 6 hours exposure then 3 days incubation): 27.7%
Effect of GGT inhibitor on cell proliferation suppressive activity ([4]; compound 0.0001 to 1 μM): did not affect the cell proliferation suppressive activity

Compound: COc1cccc2c1C(=O)c1c(O)c3c(c(O)c1C2=O)CC(O)(C(=O)CO)CC3OC1CC(NC(=O)OCc2ccc(NC(=O)CCC(N)C(=O)O)cc2)C(O)C(C)O1 [Synthesis Example 4, (((4-((S)-4-amino-4-carboxybutanamido)benzyl)oxy)carbonyl)epirubicin]
Residual ratio of the glutamic acid derivative [1, 10]: 5%

Compound: CCc1c2c(nc3ccc(OCc4ccc(NC(=O)CC[C@H](N)C(=O)O)cc4)cc13)-c1cc3c(c(=O)n1C2)COC(=O)[C@]3(O)CC [Synthesis Example 6, 10-(4-((S)-4-amino-4-carboxybutanamido)benzyloxy)-7-ethylcamptothecin ditrifluoroacetate]
Disappearance of the glutamic acid derivative and production of EHC by GGT ([1]; 0.34 mg/mL DMSO solution diluted with PBS + 0.227 mg/mL GGT solution): rapidly disappeared in one hour of the reaction and produced EHC
Residual ratio of the glutamic acid derivative in PBS ([5]; after 24 hours): 90%
Residual ratio of the glutamic acid derivative in mouse blood plasma [6]: 94%
inhibition at 0.01 µM ([2]; Homo sapiens, OS-RC-2, read-out: Cell proliferation inhibitory activity): 25%
inhibition at 0.01 µM ([3]; Homo sapiens, SK-OV-3, read-out: Cell proliferation inhibitory activity): 1.3%
Effect of GGT inhibitor on cell proliferation suppressive activity ([4]; compound 0.0001 to 1 μM): inhibited the activity
Activation rate AUCEHC/AUC unchanged drug [7]: 0.03-0.16 times
Antitumor effect (relative tumor volume) ([8]; 80 mg/kg-administered group, i.v.): noticeable tumor regression effect
Antitumor effect (relative tumor volume) ([8]; 20, 40, or 80 mg/kg i.v.): dose-dependent antitumor effect

Residual ratio of the glutamic acid derivative ([1]; after 6.5 hours, 1 mM PBS solution + 2 U/mL GGT solution): 34%
Compound: N[C@@H](CCC(=O)Nc1ccc(COC(=O)Nc2ccn([C@@H]3O[C@H](CO)C(O)[C@H]3O)c(=O)n2)cc1)C(=O)O (stereo partly drawn) [Synthesis Example 5, (((4-((S)-4-amino-4-carboxybutanamido)benzyl)oxy)carbonyl)cytarabine]

Compound: CC[C@@]1(OC(=O)OCc2ccc(NC(=O)CC[C@H](N)C(=O)O)cc2)C(=O)OCc2c1cc1n(c2=O)Cc2cc3ccccc3nc2-1 [Synthesis Example 3, (((4-((S)-4-amino-4-carboxybutanamido)benzyl)oxy)carbonyl)camptothecin]
Residual ratio of the glutamic acid derivative in PBS ([5]; after 3 hours): 74%

Compound: CCc1c2c(nc3ccc(OC(=O)OCc4ccc(NC(=O)CC[C@H](N)C(=O)O)cc4)cc13)-c1cc3c(c(=O)n1C2)COC(=O)[C@]3(O)CC [Synthesis Example 2, (((4-((S)-4-amino-4-carboxybutanamido)benzyl)oxy)carbonyl)-10-oxy-7-ethylcamptothecin]
Residual ratio of the glutamic acid derivative in PBS ([5]; after 3.5 hours): 52%

Compound: CC[C@@]1(O)C(=O)OCc2c1cc1n(c2=O)Cc2cc3c(NC(=O)CC[C@H](N)C(=O)O)cccc3nc2-1 [Comparative Example 2, 9-((S)-4-amino-4-carboxybutanamido)camptothecin, reference compound]
Residual ratio of the glutamic acid derivative [1, 10]: 99%

Compound: COc1cccc2c1C(=O)c1c(O)c3c(c(O)c1C2=O)C[C@@](O)(C(=O)CO)C[C@@H]3O[C@H]1C[C@H](N)[C@H](O)[C@H](C)O1 [doxorubicin, reference compound]
inhibition at 10 µM ([2]; Homo sapiens, OS-RC-2 cells, 10 μM, 6 hours exposure then 3 days incubation, read-out: Cell proliferation inhibitory activity): 77%
inhibition at 10 µM ([3]; Homo sapiens, SK-OV-3 cells, 10 μM, 6 hours exposure then 3 days incubation, read-out: Cell proliferation inhibitory activity): 77%
Effect of GGT inhibitor on cell proliferation suppressive activity ([4]; compound 0.039 to 10 μM): did not affect the cell proliferation suppressive activity

Compound: COc1cccc2c1C(=O)c1c(O)c3c(c(O)c1C2=O)C[C@@](O)(C(=O)CO)C[C@@H]3O[C@H]1C[C@H](N)[C@H](O)[C@H](C)O1 [doxorubicin hydrochloride, reference compound]
Toxicity (death of mice) [9]: the mice died after the second administration due to toxicity
